Source: PubChem BioAssay AID618 (Sanford-Burnham Center for Chemical Genomics, 2007)
pEC50: −log10 of the molar value. Active and inactive are the calls of the source. No rule for the calls is given here.

System: MT1-MMP promoter luciferase reporter cells, luminescence
Test: MT1-MMP gene expression reporter suppression – cell-based, luciferase reporter, luminescence (AID 618);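 also: actives suppress MT1-MMP promoter-driven transcription so potencies describe inhibitors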

| Compound | pEC50 | EC50 |
| --- | --- | --- |
| CCC/C(O)=C1\C(=O)CC(C)(C)CC1=Nc1ccc(OC)cc1OC | 4.63 |  |
| COc1ccc(C(=O)Nn2c(SCC(=O)N3CCC(C)CC3)nc3ccccc3c2=O)cc1 | 5.70 |  |
| c1ccc(-c2ccc(-c3ccccn3)nn2)nc1 | 5.38 |  |
| CN(C)c1ccc(NC(=S)c2ccccn2)cc1 | 6.40 |  |
| O=C(/C=C\Nc1ccc2c(c1)OCO2)c1ccccn1 | 6.64 |  |
| O=C(CCCOc1ccccc1)N1CCCCC1 | 5.16 |  |
| c1ccc(-c2nc(-c3ccccn3)no2)cc1 | 5.09 |  |
| CCCCCCOc1ccc(CN2CCN(CCO)CC2)cc1 | 4.92 |  |
| COc1ccc(-c2cn3nc4c(nc3n2)CCCC4)cc1 | 6.23 |  |
| CN1/C(=C\C=C\C2=[N+](C)c3ccc4ccccc4c3C2(C)C)C(C)(C)c2ccccc21 | 5.33 |  |
| COc1ccc(-c2nsc3c(N4CCCCC4)ncnc23)cc1 | 6.57 |  |
| COc1ccc(C(=O)Nn2c(SCC(=O)NCc3ccccc3)nc3ccccc3c2=O)cc1 | 5.89 |  |
| COc1ccc2nc(-c3ccc(N)cc3)[nH]c2c1 |  | > 50 µM (inactive) |
| COc1ccc(-c2cc3nnc(-c4ccccc4)nc3s2)cc1 | 6.07 |  |
| Brc1ccc(-c2nc(-c3ccccn3)no2)o1 | 5.67 |  |
| Fc1ccccc1OCCSc1nnnn1-c1ccccc1 | 4.90 |  |
| CN1CCN(CC(=O)N2CCn3c4c(c5cc(C6CCCCC6)ccc53)CCCC42)CC1 (centres undefined) | 4.92 |  |
| Cc1ccc(O)c(/C=N/NC(=O)C2=NNC(c3ccccc3)(c3ccccc3)C2)c1 | 4.72 |  |
| O=C(NCc1cccs1)c1nc2c(nnn2Cc2ccccc2Cl)c(=O)[nH]1 |  | > 50 µM (inactive) |
| O=C(c1c(Cl)nc2sccn12)N1CCN(c2cccc(Cl)c2)CC1 | 4.31 |  |
| Nc1nc(Nc2ccc(Cl)cc2)nc2ccccc12 | 5.67 |  |
| COc1ccc(-c2nc3ccccc3[nH]2)cc1 | 5.57 |  |
| CN(C(=O)c1ccco1)c1nc2c(s1)CCCC2 | 5.15 |  |
| O=C(O)CCSc1nnc(-c2ccc3c(c2)OCO3)o1 | 4.53 |  |
| Cc1c(NC(=O)c2coc(=O)c(Br)c2)c(=O)n(-c2ccccc2)n1C | 4.88 |  |
| CCN(CC)c1ccc2cc(-c3nc4ccccc4[nH]3)c(=O)oc2c1 | 5.97 |  |

| Compound | pEC50 | EC50 |
| --- | --- | --- |
| CNc1nnc(-c2ccc(N(C)C)cc2)s1 | 5.29 |  |
| CN1/C(=C/C(=O)c2nc(S(C)(=O)=O)ncc2Cl)C(C)(C)c2ccccc21 | 4.79 |  |
| CCCCCN=Cc1c(C)[nH]n(-c2nc3ccccc3s2)c1=O | 5.21 |  |
| O=C(c1cccc(COc2ccc(Cl)cc2Cl)c1)N1CCN(c2ccccn2)CC1 | 4.90 |  |
| Cc1ccc(-c2nc3cc(NC(=O)C(C)C)ccc3o2)cc1 | 5.25 |  |
| Oc1c(CN2CCc3ccccc3C2)cc(Cl)c2cccnc12 | 5.24 |  |
| O=C(CCCc1ccccc1)c1ccc2c(c1)OCCO2 | 6.55 |  |
| Cc1ccc(C(=O)Nc2nc3c(s2)CCCC3)o1 | 5.22 |  |
| CN(C)c1nc(-c2ccccn2)nnc1-c1ccccc1 |  | > 50 µM (inactive) |
| COC(=O)c1nn(-c2ccc3c(c2)CCN3C(C)=O)cc1O | 6.21 |  |
| c1ccc(-c2nc3cc4ccccc4cc3[nH]2)nc1 | 6.10 |  |
| Cc1csc(NC(=O)C2COc3ccccc3O2)n1 (centres undefined) | 5.79 |  |
| Fc1ccc(-c2nnc(-c3ccc(Cl)cc3Cl)o2)cc1 | 5.09 |  |
| N#Cc1cc2c(nc1SCC(=O)Nc1nccs1)CCCCC2 | 5.11 |  |
| Nc1ccc2oc(-c3ccc4nc[nH]c4c3)nc2c1 | 5.37 |  |
| Cc1ccsc1/C=C1\CCc2ccccc2C1=O | 5.51 |  |
| O=C(/C=C\Nc1ccccn1)c1ccc(Cl)cc1 | 5.93 |  |
| Cc1oc(-c2ccc3c(c2)OCCO3)cc1C(=O)O | 5.53 |  |
| CCCN1C=CC(=C2C(=O)c3ccccc3C2=O)C=C1 | > 7.01 |  |
| Clc1ccccc1OCc1nc(-c2ccccn2)no1 | 5.18 |  |
| COc1ccc(-c2noc(CCCC(=O)O)n2)cc1 | 6.11 |  |
| CC(=O)c1sc(NC(=O)C2COc3ccccc3O2)nc1C (centres undefined) | 5.27 |  |
| Cc1ccc(NC(=O)N2CCc3ccccc32)cc1 | 5.47 |  |
| C=CCn1c(C)cc(C(=O)CSc2ccc(NC(C)=O)cc2)c1C | 5.63 |  |
| Cc1ccc(-n2nc3ccc(N)cc3n2)cc1 | 4.87 |  |
| COc1nc(C)ccc1-c1noc(-c2ccco2)n1 | 4.96 |  |

| Compound | pEC50 | EC50 |
| --- | --- | --- |
| COc1ccc(NC(=O)c2cc3ccccn3n2)cc1 | 5.36 |  |
| CCOC(=O)CNC(=O)CSc1ncnc2c1cnn2-c1ccc(C)cc1 | 4.55 |  |
| Cc1ccc(OCc2nc(-c3ccccn3)no2)c(Br)c1 | 5.66 |  |
| O=C1C(c2ccnc3ccccc23)=C(O)c2ccccc21 |  | > 50 µM (inactive) |
| CCCOc1ccc(-c2nnc(-c3cccs3)o2)cc1 | 5.36 |  |
| Cc1ccc(C(=O)/C=C2\NCC(C)NC2=O)cc1 (centres undefined) | 5.45 |  |
| CCOC(=O)c1sc2nc3c(cc2c1N)COC(C(C)C)C3 (centres undefined) | 5.79 |  |
| CC(=O)N(Cc1ccc(F)cc1)C1=C(NCCc2ccccc2)C(=O)c2ccccc2C1=O | 4.91 |  |
| CC(=O)N(/N=C1\Sc2ccccc2C1=O)c1ccc(C)cc1C | 5.71 |  |
| O=C(CSc1nnc(-c2csc3c2CCCC3)o1)Nc1ccccc1 | 5.37 |  |
| COC(=O)c1ccc(-c2nc3cc(N)ccc3o2)cc1 | 5.51 |  |
| Clc1c(CSc2nc3ccccc3o2)nc2ccccn12 | 4.92 |  |
| C/C(=N/NC(=O)c1cc(C2CC2)[nH]n1)c1cccs1 | 5.75 |  |
| Cc1cc(C(=O)CN2C(=O)c3ccccc3S2(=O)=O)c(C)n1CC1CCCO1 (centres undefined) | 6.96 |  |
| COC(=O)c1nn(-c2ccc(-c3ccccc3)cc2)cc1O | 5.83 |  |
| CN(C)CCCNS(=O)(=O)c1ccc(N2CCC(c3ccc(Cl)cc3)=N2)cc1 | 4.92 |  |
| C=CCNc1nc(-c2ccccn2)nnc1-c1ccccc1 | 4.82 |  |
| Cc1nc2cc(-c3cccc(F)c3)nn2c(C)c1CCC(=O)NC(C)CCc1ccco1 (centres undefined) | 5.95 |  |
| CC1CCN(c2nc3ccc(C(=O)O)cc3s2)CC1 | 6.46 |  |
| Cc1nc2ccc(-c3nc4cc(N)ccc4o3)cc2[nH]1 | 5.43 |  |
| O=C(Nc1ccc(CN2CCOCC2)cc1)c1cc2ccccn2n1 | 5.47 |  |
| COc1ccc(C(=O)/C=C/Nc2cccc(O)c2)cc1 | 5.91 |  |
| Cn1c(-c2ccccc2)cnc1SCC(=O)N1CCCCC1 | 5.54 |  |
| COC(=O)CCn1nnc(-c2ccc(C(C)C)cc2)n1 | 6.96 |  |
| O=C(Nc1ccc(N2CCCCC2)cc1)c1ccccc1 | 5.45 |  |
| Cc1ccc(NC(=O)c2ccc3c(c2)OCCO3)cc1 | 5.77 |  |

| Compound | pEC50 | EC50 |
| --- | --- | --- |
| CC(C)(C)C(=O)N1CCc2cc(-c3csc(N)n3)ccc21 | 5.87 |  |
| Cc1ccc(C(=O)COC(=O)c2cccs2)cc1 | 4.73 |  |
| O=C(Nc1ccc2c(c1)OCCO2)c1cncc(Br)c1 | 5.15 |  |
| Cc1ccc(C(=O)N/N=C/c2ccc([N+](=O)[O-])s2)cc1 | 6.52 |  |
| Cc1ccoc1C(=O)Nc1ccc(CC(=O)O)cc1 | 6.38 |  |
| COc1ccc(N=CC2=C(O)c3ccccc3C2=O)c(OC)c1 | 6.10 |  |
| c1ccc(-c2cnc(-c3ccccc3)nc2)cc1 | 5.43 |  |
| CCc1ccc2oc(-c3cccc(N)c3)nc2c1 | 5.41 |  |
| Cc1cc(C(=O)Nc2cccc(C(=O)O)c2)oc1C | 6.09 |  |
| CCOc1ccc(-c2cc(CCCC(=O)Nc3cc(OC)ccc3OC)no2)cc1 | 5.46 |  |
| CCc1ccc(NC(=O)c2noc3c2CCC3)cc1 | 5.40 |  |
| Cc1cccc(C(=O)N2CCN(C(=O)c3cccc(C)c3)C(C)C2)c1 (centres undefined) |  | > 50 µM (inactive) |
| CN1CCN(c2ncnc3c2cnn3-c2ccc(Cl)cc2)CC1 | 5.41 |  |
| O=C(Nc1cccc(O)c1)c1noc2c1CCCCC2 | 6.64 |  |
| CCCCCc1ccc(-c2ccc(C(=O)O)cc2)nc1 | 5.45 |  |
| Cc1cc(C(=O)COC(=O)c2n[nH]c3ccccc23)c(C)n1C | 5.14 |  |
| Cc1cc(C(=O)CSc2nnc(-c3cccs3)o2)c(C)n1-c1ccccc1 | 5.11 |  |
| NC(=O)c1c(NC(=O)c2cc3ccccc3o2)sc2c1CCC2 | 5.18 |  |
| N#C/C(=C\c1ccc(N2CCOCC2)o1)c1nc2ccccc2[nH]1 | 5.36 |  |
| CCCCN(C)C(=O)c1cc2cc3ccc(OC)cc3nc2s1 | 5.44 |  |
| CCOc1ccc2nc(NC(=O)c3ccoc3C)sc2c1 | 6.01 |  |
| CC1CCc2nc(NC(=O)C3CCCO3)sc2C1 (centres undefined) | 4.91 |  |
| Cc1ccc(-c2csc3ncnc(Sc4nnc(CN5CCCCCC5=O)o4)c23)cc1 | 4.82 |  |
| COc1ccc(C2=Nc3ccccc3OC2)cc1 | 4.42 |  |
| COc1ccc(-c2cc(C(=O)O)c(C)o2)cc1OC | 5.45 |  |
| CCOc1ccc(OCc2ccc(C(=O)O)o2)cc1 | 5.24 |  |

| Compound | pEC50 | EC50 |
| --- | --- | --- |
| O=c1c2sc(-c3ccccc3)cc2nc2n1CCC2 | 5.39 |  |
| Oc1ccc(Nc2nc(N3CCCC3)c3ccccc3n2)cc1 | 4.58 |  |
| Cc1cc(C)c2c(N)c(C(=O)Nc3nccs3)sc2n1 | 5.88 |  |
| Cc1ccc2nc(NC(=O)c3ccco3)sc2c1 | 6.00 |  |
| O=C(Nc1ccc(NC(=O)c2ccco2)nc1)c1ccccn1 | 5.05 |  |
| O=c1c2ccccc2nnn1CSc1nnc2sc3ccccc3n12 | 5.10 |  |
| O=C1/C(=C/Nc2ccc3c(c2)OCO3)CCc2ccccc21 | 6.09 |  |
| COc1cccc(C(=O)Nc2nc3ccccc3[nH]2)c1 | 6.02 |  |
| O=C(O)c1cccc(C(=O)Nc2cccc(NC(=O)C3CCCO3)c2)c1 (centres undefined) | 5.00 |  |
| O=C1C(N2CCOCC2)=C(n2nnc3ccccc32)C(=O)c2ccccc21 | 4.98 |  |
| CCOc1ccc(-c2cc(CCCC(=O)NCCCOC)no2)cc1 | 5.08 |  |
| CC(=O)Nc1ccc(OC(=O)N2CCCCC2)cc1 |  | > 50 µM (inactive) |
| c1ccc(-c2cn3nc4c(nc3n2)CCCC4)cc1 | 6.27 |  |
| Oc1cccc(-c2nc3ccccc3s2)c1 | 5.52 |  |
| O=C1c2ccccc2C(=O)C1c1ccnc2ccccc12 | 5.99 |  |
| Cc1cccc(-n2ncc3c(N4CCCC4)ncnc32)c1 | 5.12 |  |
| Cc1nc(Nc2nc3ccccc3o2)nc2c1CCC2 | 5.51 |  |
| O=c1c(Cl)c(N2CCCCC2)cnn1-c1nc2ccccc2[nH]1 | 6.23 |  |
| CCOc1ccc(NC(=O)c2cnsn2)cc1 | 5.06 |  |
| CC(=O)Nc1ccc2oc(-c3cc(F)c(F)cc3Cl)nc2c1 | 5.46 |  |
| Cc1cc(N2CCOCC2)n2ncc(-c3ccccc3)c2n1 | 5.45 |  |
| Cc1oncc1C(=O)Nc1ccc(C(F)(F)F)cc1 | 5.25 |  |
| Cc1nc(NC2=NCN(CCCN3CCOCC3)CN2)nc2c(C)cccc12 | 4.46 |  |
| c1ccc(OCCSc2nnc3sc4ccccc4n23)cc1 | 5.84 |  |
| CCOC(=O)CCS(=O)(=O)c1nc(-c2ccccc2)cc(C(F)(F)F)n1 | 4.80 |  |
